Patent US5011825A, “Peptides influencing diuresis and natriuresis, a process for their preparation, agents containing them, and their use” (Hoechst Aktiengesellschaft, priority 1986, dated 1991)
Where a SMILES comes first, the peptide text is derived from it. [ ]: non-standard residue; d: D form. The star is where a group is joined. d(aIle) = CC[C@H](C)[C@@H](N)C(=O)O; Leu(ol) = CC(C)C[C@H](N)CO; code Z = not defined here; Cbz = O=C(OCc1ccccc1)*; OBn = c1ccc(CO*)cc1; OtBu = CC(C)(C)O*; tBu = CC(C)(C)*

Tests used:
rat [1] = experiment: Diuretic, natriuretic and kaliuretic action, Experimental Design 2 (anesthetized rats, stepwise halved NaCl infusion, i.v. bolus); format: in vivo; conditions: dose 1 mg/kg rat i.v. bolus, collection period 120 min; for Urine: control 0.520; for K^+: control 25.8; for Na^+: control 31.5
Procedure: B. Diuretic, natruiuretic and kaliuretic action of the peptides according to the invention in Experimental Design 2 (dose: 1 mg/kg rat, colection period: 120 min.)
Experimental Design 2: The rats were anesthetized with 0.1 ml of 10% strength thiobutabarbital sodium/100 g of body weight i.p. They received an NaCl infusion from 60 min before administration of the substance up to administration of the substance (2.5 ml of a 0.85% strength NaCl solution .h^-1.0.1 kg^-1 body weight). After ad
ministration of the substance, the infusion rate was halved for one hour (1.25 ml.h^-1.0.1 kg^-1) Thereafter the infusion rate was again halved up to the end of the experiment (0.625 ml.h^1.0.1 kg^-1). The test substance was administered as i.v. bolus in 0.1 ml of a 0.85% strength NaCl solution/100 g of body weight.

rat [2] = experiment: Diuretic, natriuretic and kaliuretic action, Experimental Design 1 (anesthetized rats, continuous NaCl infusion, i.v. bolus); format: in vivo; conditions: for Urine / K^+ / Na^+: collection period 90 min; for Urine: control 1.267; for K^+: control 29.5; for Na^+: control 65.2; for Type of action on diuresis, natriuresis and kaliuresis (in words): judged from the data against control
Procedure: A. […]
Experimental Design 1: The rats were anesthetized with 0.1 ml of 10% strength thiobutabarbital sodium/100 g of body weight i.p. They received an NaCl infusion from 60 min before administration of the substance and continuing during the experiment (2.5 ml of a 0.9% strength NaCl solution .h^-1.0.1 kg^-1 body weight). The test substance was administered as an i.v. bolus in 0.5 ml of a 0.9% strength solution/100 g of body weight.

Row | Compound | Urine (rat [1]) | K^+ (rat [1]) | Na^+ (rat [1]) | other results
1 | H-RLQRL-OH [H-Arg-Leu-Gln-Arg-Leu-OH, H-Arg-Leu-Gln-Arg-Leu--OH] | 0.25 mL/kg | 23.7 µmol/kg | 30.2 µmol/kg | –
2 | CC(C)C[C@H](NC(=O)[C@H](NC(=O)[C@H](CCCNC(=N)N)NC(=O)OCc1ccccc1)C(C)C)C(=O)N[C@@H](CCCNC(=N)N)C(=O)N[C@@H](C(=O)OCc1ccccc1)C(C)C [Z-Arg-D-Val-Leu-Arg-D-Val-OBzl] (Cbz-R[dV]LR[dV]-OBn) | 0.27 mL/kg | 38.3 µmol/kg | 55.1 µmol/kg | –
3 | CC[C@H](C)[C@H](NC(=O)[C@@H](N)CCCNC(=N)N)C(=O)N[C@@H](COC(C)(C)C)C(=O)N[C@@H](CCCNC(=N)N)C(=O)N1CCC[C@H]1C(=O)OC(C)(C)C [H-Arg-Ile-Ser(tBu)-Arg-Pro-OtBu] (H-RIS(tBu)RP-OtBu) | 0.63 mL/kg | 31.5 µmol/kg | 136.8 µmol/kg | –
4 | Cbz-[dR]IL[dR]I-OBn | 0.29 mL/kg | 30.1 µmol/kg | 48.4 µmol/kg | –
5 | CC[C@H](C)[C@H](NC(=O)[C@@H](N)CCCNC(=N)N)C(=O)N[C@H](CC(C)C)C(=O)N[C@@H](CCCNC(=N)N)C(=O)N[C@@H](C(=O)O)C(C)C [H-Arg-Ile-D-Leu-Arg-D-Val-OH] (H-RI[dL]R[dV]-OH) | 0.31 mL/kg | 32.8 µmol/kg | 68.4 µmol/kg | –
6 | CC[C@H](C)[C@H](NC(=O)[C@H](CCCNC(=N)N)NC(=O)[C@H](CC(C)C)NC(=O)[C@H](NC(=O)[C@@H](N)CCCNC(=N)N)C(C)C)C(=O)O [H-Arg-D-Val-Leu-Arg-Ile-OH] (H-R[dV]LRI-OH) | 0.57 mL/kg | 34.9 µmol/kg | 83.77 µmol/kg | –
7 | H-RILRI-OH [H-Arg-Ile-Leu-Arg-Ile-OH] | – | – | – | Urine (rat [2]; dose 1 mg/kg rat i.v. bolus): 2.03 mL/kg; K^+ (rat [2]; dose 1 mg/kg rat i.v. bolus): 50.1 µmol/kg; Na^+ (rat [2]; dose 1 mg/kg rat i.v. bolus): 149.8 µmol/kg
8 | H-KFLKF-OH [H-Lys-Phe-Leu-Lys-Phe-OH] | 0.52 mL/kg | 31.0 µmol/kg | 80.2 µmol/kg | –
9 | Cbz-RID(OtBu)RI-NH2 | – | – | – | Urine (rat [2]; dose 1 mg/kg rat i.v. bolus): 1.51 mL/kg; K^+ (rat [2]; dose 1 mg/kg rat i.v. bolus): 63.3 µmol/kg; Na^+ (rat [2]; dose 1 mg/kg rat i.v. bolus): 263.2 µmol/kg
10 | CC[C@H](C)[C@H](NC(=O)[C@@H](N)CCCNC(=N)N)C(=O)N[C@@H](CC(C)C)C(=O)N[C@@H](CCCNC(=N)N)C(=O)N[C@@H](C(=O)O)C(C)C [H-Arg-Ile-Leu-Arg-D-Val-OH] (H-RILR[dV]-OH) | 0.56 mL/kg | 38.9 µmol/kg | 68.8 µmol/kg | –
11 | H-KFLKF-NH2 [H-Lys-Phe-Leu-Lys-Phe-NH2] | 0.25 mL/kg | 16.7 µmol/kg | 36.8 µmol/kg | –
12 | CC[C@H](C)[C@H](NC(=O)[C@@H](CCCNC(=N)N)NC(=O)[C@H](CC(C)C)NC(=O)[C@@H](NC(=O)[C@@H](N)CCCNC(=N)N)[C@@H](C)CC)C(=O)O [H-Arg-Ile-Leu-D-Arg-Ile-OH] (H-RIL[dR]I-OH) | 0.78 mL/kg | 40.8 µmol/kg | 93.7 µmol/kg | –
13 | Z-D-Arg-Ile-Leu-Arg-Ile-OBzl ({code Z}-[dR]ILRI-OBn; reading uncertain; also: printed as Z-D-Arg-Ile-Leu-Arg-Ile-OBzl) | 0.59 mL/kg | 38.1 µmol/kg | 86.3 µmol/kg | –
14 | CC[C@H](C)[C@H](NC(=O)[C@H](CCCNC(=N)N)NC(=O)[C@@H](COC(C)(C)C)NC(=O)[C@@H](NC(=O)[C@@H](N)CCCNC(=N)N)[C@@H](C)CC)C(=O)O [H-Arg-Ile-D-Ser(tBu)-Arg-Ile-OH] (H-RI[dS](tBu)RI-OH) | – | – | – | Urine (rat [2]; dose 1 mg/kg rat i.v. bolus): 0.95 mL/kg; K^+ (rat [2]; dose 1 mg/kg rat i.v. bolus): 44.3 µmol/kg; Na^+ (rat [2]; dose 1 mg/kg rat i.v. bolus): 87.0 µmol/kg
15 | Z-Arg-I-le-Glu(OtBu)-Arg-Ile-NH2 [Z-Arg-Ile-Glu(OtBu)-Arg-Ile-NH2] | 0.47 mL/kg | 36.1 µmol/kg | 91.5 µmol/kg | –
16 | Cbz-[dR]I[dL]RI-OBn | 0.19 mL/kg | 20.4 µmol/kg | 37.3 µmol/kg | –

Row | Compound | Urine (rat [1]) | K^+ (rat [1]) | Na^+ (rat [1]) | other results
17 | H-RID(OtBu)R[Leu(ol)] | – | – | – | Urine (rat [2]; dose 1 mg/kg rat i.v. bolus): 1.55 mL/kg; K^+ (rat [2]; dose 1 mg/kg rat i.v. bolus): 64.2 µmol/kg; Na^+ (rat [2]; dose 1 mg/kg rat i.v. bolus): 180.8 µmol/kg
18 | CC[C@H](C)[C@H](NC(=O)[C@H](CCCNC(=N)N)NC(=O)[C@@H](CC(C)C)NC(=O)[C@@H](NC(=O)[C@H](N)CCCNC(=N)N)[C@@H](C)CC)C(=O)O [H-D-Arg-Ile-D-Leu-Arg-Ile-OH] (H-[dR]I[dL]RI-OH) | 1.13 mL/kg | 49.7 µmol/kg | 115.9 µmol/kg | –
19 | CC[C@H](C)[C@H](NC(=O)[C@H](CCCNC(=N)N)NC(=O)[C@H](COC(C)(C)C)NC(=O)[C@@H](NC(=O)[C@@H](N)CCCNC(=N)N)[C@@H](C)CC)C(=O)O [H-Arg-Ile-Ser(tBu)-Arg-Ile-OH] (H-RIS(tBu)RI-OH) | – | – | – | Urine (rat [2]; dose 1 mg/kg rat i.v. bolus): 1.19 mL/kg; K^+ (rat [2]; dose 1 mg/kg rat i.v. bolus): 28.4 µmol/kg; Na^+ (rat [2]; dose 1 mg/kg rat i.v. bolus): 74.5 µmol/kg
20 | H-RPVKV-OH [H-Arg-Pro-Val-Lys-Val-OH] | – | – | – | Urine (rat [2]; dose 1 mg/kg rat i.v. bolus): 0.91 mL/kg; K^+ (rat [2]; dose 1 mg/kg rat i.v. bolus): 28.2 µmol/kg; Na^+ (rat [2]; dose 1 mg/kg rat i.v. bolus): 155.7 µmol/kg; Type of action on diuresis, natriuresis and kaliuresis (in words) (rat [2]): potassium-retaining natriuretics
21 | CC[C@H](C)[C@H](NC(=O)[C@H](CCCNC(=N)N)NC(=O)[C@@H](CC(C)C)NC(=O)[C@H](NC(=O)[C@H](N)CCCNC(=N)N)[C@@H](C)CC)C(=O)O [H-D-Arg-D-allo-Ile-D-Leu-Arg-Ile-OH] (H-[dR][d(aIle)][dL]RI-OH) | 0.87 mL/kg | 35.5 µmol/kg | 95.1 µmol/kg | –
22 | CC[C@H](C)[C@H](NC(=O)[C@@H](CCCNC(=N)N)NC(=O)[C@H](CC(C)C)NC(=O)[C@@H](NC(=O)[C@H](N)CCCNC(=N)N)[C@@H](C)CC)C(=O)O [H-D-Arg-Ile-Leu-D-Arg-Ile-OH] (H-[dR]IL[dR]I-OH) | 0.28 mL/kg | 33.9 µmol/kg | 61.4 µmol/kg | –
23 | H-RIWRI-OH [H-Arg-Ile-Trp-Arg-Ile-OH] | – | – | – | Urine (rat [2]; dose 1 mg/kg rat i.v. bolus): 0.67 mL/kg; K^+ (rat [2]; dose 1 mg/kg rat i.v. bolus): 57.5 µmol/kg; Na^+ (rat [2]; dose 1 mg/kg rat i.v. bolus): 112.8 µmol/kg
24 | Z-Arg-Ile-Trp-Arg-Ile-OMe ({code Z}-RIWRI-OMe; reading uncertain; also: printed as Z-Arg-Ile-Trp-Arg-Ile-OMe) | – | – | – | Urine (rat [2]; dose 1 mg/kg rat i.v. bolus): 1.16 mL/kg; K^+ (rat [2]; dose 1 mg/kg rat i.v. bolus): 46.2 µmol/kg; Na^+ (rat [2]; dose 1 mg/kg rat i.v. bolus): 152.5 µmol/kg
25 | CC[C@H](C)[C@H](NC(=O)[C@H](CCCNC(=N)N)NC(=O)OCc1ccccc1)C(=O)N[C@@H](CC(C)C)C(=O)N[C@H](CCCNC(=N)N)C(=O)N[C@H](C(=O)OCc1ccccc1)[C@@H](C)CC [Z-Arg-Ile-Leu-D-Arg-Ile-OBzl] (Cbz-RIL[dR]I-OBn) | 0.52 mL/kg | 36.2 µmol/kg | 66.9 µmol/kg | –
26 | CC[C@H](C)[C@H](NC(=O)[C@H](CCCNC(=N)N)NC(=O)OCc1ccccc1)C(=O)N[C@@H](CC(C)C)C(=O)N[C@@H](CCCNC(=N)N)C(=O)N[C@@H](C(=O)OCc1ccccc1)C(C)C [Z-Arg-Ile-Leu-Arg-D-Val-OBzl] (Cbz-RILR[dV]-OBn) | 0.43 mL/kg | 36.7 µmol/kg | 88.6 µmol/kg | –
27 | CC[C@H](C)[C@H](NC(=O)[C@H](CCCNC(=N)N)NC(=O)[C@H](CC(C)C)NC(=O)[C@@H](NC(=O)[C@H](N)CCCNC(=N)N)[C@@H](C)CC)C(=O)O [H-D-Arg-Ile-Leu-Arg-Ile-OH] (H-[dR]ILRI-OH) | 0.22 mL/kg | 33.6 µmol/kg | 55.3 µmol/kg | –
28 | CC[C@H](C)[C@H](NC(=O)[C@H](CCCNC(=N)N)NC(=O)OCc1ccccc1)C(=O)N[C@@H](COC(C)(C)C)C(=O)N[C@@H](CCCNC(=N)N)C(=O)N1CCC[C@H]1C(=O)OC(C)(C)C [Z-Arg-Ile-Ser(tBu)-Arg-Pro-OtBu] (Cbz-RIS(tBu)RP-OtBu) | 0.44 mL/kg | 37.8 µmol/kg | 88.9 µmol/kg | –
29 | Z-Arg-Ile-Asp(OtBu)-Arg-Ile-ol | – | – | – | Urine (rat [2]; dose 1 μg/kg i.v. bolus): 0.79 mL/kg; K^+ (rat [2]; dose 1 μg/kg i.v. bolus): 27.8 µmol/kg; Na^+ (rat [2]; dose 1 μg/kg i.v. bolus): 118.4 µmol/kg; Type of action on diuresis, natriuresis and kaliuresis (in words) (rat [2]): antidiuretics with a natriuretic action
30 | H-RIFRI-OH [H-Arg-Ile-Phe-Arg-Ile-OH] | – | – | – | Urine (rat [2]; dose 1 mg/kg rat i.v. bolus): 2.00 mL/kg; K^+ (rat [2]; dose 1 mg/kg rat i.v. bolus): 68.3 µmol/kg; Na^+ (rat [2]; dose 1 mg/kg rat i.v. bolus): 211.0 µmol/kg
31 | CC[C@H](C)[C@H](NC(=O)[C@H](CCCNC(=N)N)NC(=O)OCc1ccccc1)C(=O)N[C@H](CC(C)C)C(=O)N[C@@H](CCCNC(=N)N)C(=O)N[C@@H](C(=O)OCc1ccccc1)C(C)C [Z-Arg-Ile-D-Leu-Arg-D-Val-OBzl] (Cbz-RI[dL]R[dV]-OBn) | 0.48 mL/kg | 43.8 µmol/kg | 79.0 µmol/kg | –
